# PubChem BioAssay AID1963972 (Molecular Pharmacology Branch, DTP, NCI, 2024)
# System: 945468-187-T-J2-PDC spheroids viability
# Test: Anticancer human tumor 945468-187-T-J2-PDC patient-derived rectal carcinoma cell line growth inhibition [PI3K]
# Settings: spheroids with HUVEC and MSC; for IC50: curve of first compound; for viability, T/C: stronger effect = lower value
# Outline: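 Agents were dosed from a top concentration near clinical Cmax (otherwise 10 microM) in half-log decrements, alone or combined with PI3K inhibitors. The spheroids contain tumor cells plus endothelial (HUVEC) and MSC stroma; viability is measured.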
# [1] = second compound 0.00316 µM, first compound 0.000316 µM
# [2] = second compound 0.00316 µM, first compound 0.001 µM
# [3] = second compound 0.00316 µM, first compound 0.00316 µM
# [4] = second compound 0.00316 µM, first compound 0.01 µM
# [5] = second compound 0.00316 µM, first compound 0.0316 µM
# [6] = second compound 0.00316 µM, first compound 0.1 µM
# [7] = second compound 0.01 µM, first compound 0.000316 µM
# [8] = second compound 0.01 µM, first compound 0.001 µM
# [9] = second compound 0.01 µM, first compound 0.00316 µM
# [10] = second compound 0.01 µM, first compound 0.01 µM
# [11] = second compound 0.01 µM, first compound 0.0316 µM
# [12] = second compound 0.01 µM, first compound 0.1 µM
# [13] = second compound 0.0316 µM, first compound 0.000316 µM
# [14] = second compound 0.0316 µM, first compound 0.001 µM
# [15] = second compound 0.0316 µM, first compound 0.00316 µM
# [16] = second compound 0.0316 µM, first compound 0.01 µM
# [17] = second compound 0.0316 µM, first compound 0.0316 µM
# [18] = second compound 0.0316 µM, first compound 0.1 µM
# [19] = second compound 0.1 µM, first compound 0.000316 µM
# [20] = second compound 0.1 µM, first compound 0.001 µM
# [21] = second compound 0.1 µM, first compound 0.00316 µM
# [22] = second compound 0.1 µM, first compound 0.01 µM
# [23] = second compound 0.1 µM, first compound 0.0316 µM
# [24] = second compound 0.1 µM, first compound 0.1 µM
# [25] = second compound 0.316 µM, first compound 0.000316 µM
# [26] = second compound 0.316 µM, first compound 0.001 µM
# [27] = second compound 0.316 µM, first compound 0.00316 µM
# [28] = second compound 0.316 µM, first compound 0.01 µM
# [29] = second compound 0.316 µM, first compound 0.0316 µM
# [30] = second compound 0.316 µM, first compound 0.1 µM
# [31] = second compound 1 µM, first compound 0.000316 µM
# [32] = second compound 1 µM, first compound 0.001 µM
# [33] = second compound 1 µM, first compound 0.00316 µM
# [34] = second compound 1 µM, first compound 0.01 µM
# [35] = second compound 1 µM, first compound 0.0316 µM
# [36] = second compound 1 µM, first compound 0.1 µM
# [37] = second compound 0.00316 µM, first compound 0.316 µM
# [38] = second compound 0.00316 µM, first compound 1 µM
# [39] = second compound 0.00316 µM, first compound 3.16 µM
# [40] = second compound 0.00316 µM, first compound 10 µM
# [41] = second compound 0.01 µM, first compound 0.316 µM
# [42] = second compound 0.01 µM, first compound 1 µM
# [43] = second compound 0.01 µM, first compound 3.16 µM
# [44] = second compound 0.01 µM, first compound 10 µM
# [45] = second compound 0.0316 µM, first compound 0.316 µM
# [46] = second compound 0.0316 µM, first compound 1 µM
# [47] = second compound 0.0316 µM, first compound 3.16 µM
# [48] = second compound 0.0316 µM, first compound 10 µM
# [49] = second compound 0.1 µM, first compound 0.316 µM
# [50] = second compound 0.1 µM, first compound 1 µM
# [51] = second compound 0.1 µM, first compound 3.16 µM
# [52] = second compound 0.1 µM, first compound 10 µM
# [53] = second compound 0.316 µM, first compound 0.316 µM
# [54] = second compound 0.316 µM, first compound 1 µM
# [55] = second compound 0.316 µM, first compound 3.16 µM
# [56] = second compound 0.316 µM, first compound 10 µM
# [57] = second compound 1 µM, first compound 0.316 µM
# [58] = second compound 1 µM, first compound 1 µM
# [59] = second compound 1 µM, first compound 3.16 µM
# [60] = second compound 1 µM, first compound 10 µM
# 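Also: spheroids exposed to compounds for seven days before reading.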
compound,measurement,setting,value
CC(=O)c1c(C)c2cnc(Nc3ccc(N4CCNCC4)cn3)nc2n(C2CCCC2)c1=O + COc1c(OCCCN2CCOCC2)ccc2c3n(c(=NC(=O)c4cnc(N)nc4)nc12)CCN3,IC50,second compound 0.00316 µM,> 0.1 µM
same,IC50,second compound 0.01 µM,> 0.1 µM
same,IC50,second compound 0.0316 µM,> 0.1 µM
same,IC50,second compound 0.1 µM,> 0.1 µM
same,IC50,second compound 0.316 µM,< 0.000316 µM
same,IC50,second compound 1 µM,< 0.000316 µM
same,"viability, T/C",[1],101%
same,"viability, T/C",[2],96.6%
same,"viability, T/C",[3],110%
same,"viability, T/C",[4],103%
same,"viability, T/C",[5],96.3%
same,"viability, T/C",[6],112%
same,"viability, T/C",[7],135%
same,"viability, T/C",[8],135%
same,"viability, T/C",[9],120%
same,"viability, T/C",[10],108%
same,"viability, T/C",[11],110%
same,"viability, T/C",[12],130%
same,"viability, T/C",[13],115%
same,"viability, T/C",[14],95.4%
same,"viability, T/C",[15],101%
same,"viability, T/C",[16],105%
same,"viability, T/C",[17],118%
same,"viability, T/C",[18],113%
same,"viability, T/C",[19],102%
same,"viability, T/C",[20],101%
same,"viability, T/C",[21],115%
same,"viability, T/C",[22],80%
same,"viability, T/C",[23],85.5%
same,"viability, T/C",[24],89.9%
same,"viability, T/C",[25],38.6%
same,"viability, T/C",[26],36.7%
same,"viability, T/C",[27],45.7%
same,"viability, T/C",[28],40.9%
same,"viability, T/C",[29],36.2%
same,"viability, T/C",[30],37.4%
same,"viability, T/C",[31],24.2%
same,"viability, T/C",[32],21.4%
same,"viability, T/C",[33],28.7%
same,"viability, T/C",[34],21.6%
same,"viability, T/C",[35],22.8%
same,"viability, T/C",[36],18.5%
CC(C)n1nc(-c2ccc3oc(N)nc3c2)c2c(N)ncnc21 + COc1c(OCCCN2CCOCC2)ccc2c3n(c(=NC(=O)c4cnc(N)nc4)nc12)CCN3,IC50,second compound 0.00316 µM,> 0.1 µM
same,IC50,second compound 0.01 µM,> 0.1 µM
same,IC50,second compound 0.0316 µM,0.0605 µM
same,IC50,second compound 0.1 µM,0.0204 µM
same,IC50,second compound 0.316 µM,< 0.000316 µM
same,IC50,second compound 1 µM,< 0.000316 µM
same,"viability, T/C",[1],82.4%
same,"viability, T/C",[2],83.8%
same,"viability, T/C",[3],81.7%
same,"viability, T/C",[4],84.3%
same,"viability, T/C",[5],73.6%
same,"viability, T/C",[6],61.1%
same,"viability, T/C",[7],120%
same,"viability, T/C",[8],109%
same,"viability, T/C",[9],80.7%
same,"viability, T/C",[10],82.7%
same,"viability, T/C",[11],66.6%
same,"viability, T/C",[12],66.1%
same,"viability, T/C",[13],77.1%
same,"viability, T/C",[14],85.8%
same,"viability, T/C",[15],116%
same,"viability, T/C",[16],86%
same,"viability, T/C",[17],79.1%
same,"viability, T/C",[18],27.4%
same,"viability, T/C",[19],76.2%
same,"viability, T/C",[20],76.2%
same,"viability, T/C",[21],61.5%
same,"viability, T/C",[22],75.6%
same,"viability, T/C",[23],36.2%
same,"viability, T/C",[24],16.7%
same,"viability, T/C",[25],36.5%
same,"viability, T/C",[26],31.8%
same,"viability, T/C",[27],26.5%
same,"viability, T/C",[28],25.4%
same,"viability, T/C",[29],17.6%
same,"viability, T/C",[30],10.9%
same,"viability, T/C",[31],20.2%
same,"viability, T/C",[32],22.1%
same,"viability, T/C",[33],17.7%
same,"viability, T/C",[34],13.8%
same,"viability, T/C",[35],12.1%
same,"viability, T/C",[36],11.3%
CCCS(=O)(=O)Nc1ccc(F)c(C(=O)c2c[nH]c3ncc(-c4ccc(Cl)cc4)cc23)c1F + COc1c(OCCCN2CCOCC2)ccc2c3n(c(=NC(=O)c4cnc(N)nc4)nc12)CCN3,IC50,second compound 0.00316 µM,5.78 µM
same,IC50,second compound 0.01 µM,6.43 µM
same,IC50,second compound 0.0316 µM,5.58 µM
same,IC50,second compound 0.1 µM,6.05 µM
same,IC50,second compound 0.316 µM,< 0.0316 µM
same,IC50,second compound 1 µM,< 0.0316 µM
same,"viability, T/C",[5],95.3%
same,"viability, T/C",[6],106%
same,"viability, T/C",[37],111%
same,"viability, T/C",[38],116%
same,"viability, T/C",[39],89.2%
same,"viability, T/C",[40],14.6%
same,"viability, T/C",[11],109%
same,"viability, T/C",[12],82%
same,"viability, T/C",[41],79.8%
same,"viability, T/C",[42],92.5%
same,"viability, T/C",[43],105%
same,"viability, T/C",[44],22.9%
same,"viability, T/C",[17],100%
same,"viability, T/C",[18],91.4%
same,"viability, T/C",[45],90.2%
same,"viability, T/C",[46],103%
same,"viability, T/C",[47],75.2%
same,"viability, T/C",[48],24.2%
same,"viability, T/C",[23],73.1%
same,"viability, T/C",[24],90.5%
same,"viability, T/C",[49],77.7%
same,"viability, T/C",[50],77.6%
same,"viability, T/C",[51],77.2%
same,"viability, T/C",[52],29%
same,"viability, T/C",[29],38.7%
same,"viability, T/C",[30],37%
same,"viability, T/C",[53],36.9%
same,"viability, T/C",[54],34%
same,"viability, T/C",[55],35.3%
same,"viability, T/C",[56],21.5%
same,"viability, T/C",[35],21.4%
same,"viability, T/C",[36],22.6%
same,"viability, T/C",[57],21.9%
same,"viability, T/C",[58],19.5%
same,"viability, T/C",[59],25.7%
same,"viability, T/C",[60],15.6%
CNC(=O)c1ccc(N2C(=S)N(c3ccc(C#N)c(C(F)(F)F)c3)C(=O)C2(C)C)cc1F + COc1c(OCCCN2CCOCC2)ccc2c3n(c(=NC(=O)c4cnc(N)nc4)nc12)CCN3,IC50,second compound 0.00316 µM,> 10 µM
same,IC50,second compound 0.01 µM,> 10 µM
same,IC50,second compound 0.0316 µM,> 10 µM
same,IC50,second compound 0.1 µM,> 10 µM
same,IC50,second compound 0.316 µM,< 0.0316 µM
same,IC50,second compound 1 µM,< 0.0316 µM
same,"viability, T/C",[5],107%
same,"viability, T/C",[6],86.3%
same,"viability, T/C",[37],94.9%
same,"viability, T/C",[38],113%
same,"viability, T/C",[39],91.1%
same,"viability, T/C",[40],80%
same,"viability, T/C",[11],95.5%
same,"viability, T/C",[12],92.2%
same,"viability, T/C",[41],108%
same,"viability, T/C",[42],110%
same,"viability, T/C",[43],90.9%
same,"viability, T/C",[44],72.1%
same,"viability, T/C",[17],87.8%
same,"viability, T/C",[18],93.1%
same,"viability, T/C",[45],113%
same,"viability, T/C",[46],111%
same,"viability, T/C",[47],93%
same,"viability, T/C",[48],109%
same,"viability, T/C",[23],102%
same,"viability, T/C",[24],94%
same,"viability, T/C",[49],95.9%
same,"viability, T/C",[50],81.2%
same,"viability, T/C",[51],82%
same,"viability, T/C",[52],64.4%
same,"viability, T/C",[29],33.8%
same,"viability, T/C",[30],39.6%
same,"viability, T/C",[53],48.2%
same,"viability, T/C",[54],38.6%
same,"viability, T/C",[55],38.5%
same,"viability, T/C",[56],34.7%
same,"viability, T/C",[35],18.2%
same,"viability, T/C",[36],21.1%
same,"viability, T/C",[57],17.2%
same,"viability, T/C",[58],23.1%
same,"viability, T/C",[59],23.3%
same,"viability, T/C",[60],21%
